Experiment [1] concerns HUT102 cells. In words: HUT102 cell viability. Conditions: various concentrations, FIG. 1A. The class given is cell-based. The protocol:
(§1) HUT 102 cells and patient-derived ATL cells were treated with various concentrations of mJJ64C (Compound 17) or mJJ64 (Compound 1). Cell viability was determined.

Experiment [2] concerns patient-derived ATL cells. In words: ATL patient-derived cell viability. The class given is cell-based. Conditions: various concentrations, FIG. 1B. The procedure: as §1
Experiment [3] deals with Akt3 (Homo sapiens, UniProt Q9Y243). In words: Akt3 inhibition (no method described).
For experiment [4], the system named is c-myc. In words: c-myc gene expression in HUT102 cells (RT-PCR). The class given is cell-based. The note with it: at 2 uM and above, FIG. 2. The protocol: (§2) HUT102 cells were treated with different concentrations of Compound 17 (0.5 uM, 1 uM, 2 uM and 4 uM). Expression of b-cat, c-myc, and survivin were evaluated using RT-PCR.
Experiment [5] concerns survivin. In words: survivin gene expression in HUT102 cells (RT-PCR). The class given is cell-based. The note with it: at 2 uM and above, FIG. 2. The protocol: as §2
Experiment [6] deals with b-cat. In words: b-cat gene expression in HUT102 cells (RT-PCR). The class given is cell-based. The note with it: at 2 uM and above, FIG. 2. The procedure: as §2

The text below walks through data of US20230201188A1, “COMPOSITIONS AND METHODS FOR TREATING LEUKEMIA” (Augusta University Research Institute, Inc., priority 2020, published 2023).

Sequence of Akt3 (Q9Y243 whole entry): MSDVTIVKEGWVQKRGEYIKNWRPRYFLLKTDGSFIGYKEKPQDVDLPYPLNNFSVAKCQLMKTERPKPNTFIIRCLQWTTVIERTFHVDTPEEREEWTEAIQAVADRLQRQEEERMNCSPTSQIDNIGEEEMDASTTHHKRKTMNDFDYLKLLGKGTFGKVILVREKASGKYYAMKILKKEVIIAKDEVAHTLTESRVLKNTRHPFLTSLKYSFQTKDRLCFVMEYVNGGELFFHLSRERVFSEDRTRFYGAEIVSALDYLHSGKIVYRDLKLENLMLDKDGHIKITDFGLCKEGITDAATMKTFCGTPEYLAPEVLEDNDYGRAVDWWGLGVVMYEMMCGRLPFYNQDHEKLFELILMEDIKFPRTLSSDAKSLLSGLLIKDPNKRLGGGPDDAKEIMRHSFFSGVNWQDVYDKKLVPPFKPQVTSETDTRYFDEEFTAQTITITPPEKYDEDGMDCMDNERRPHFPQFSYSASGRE

On to `O=C(O)c1ccc2nccc(Nc3ccc(C(=O)Nc4ccc(Nc5ccncc5)cc4)cc3)c2c1` [Compound 18], for which the cell viability result in experiment [1] is listed as “reduce cell viability”.
`O=C(Nc1ccc(Nc2ccncc2)cc1)c1ccc(Nc2ccnc3ccc([N+](=O)[O-])cc23)cc1` [Compound 1, 4-[(6-nitroquinolin-4-yl)amino]-N-[4-(pyridin-4-ylamino)phenyl]benzamide]: the cell viability result in experiment [2] is given as “reduce cell viability”. Besides, the Akt3 activity result in experiment [3] is on record as “selectively inhibits Akt3 activity”.
Consider `O=C(Nc1cccc(Nc2ccncc2)c1)c1cccc(Nc2ccnc3ccc(F)cc23)c1` [Compound 17], for which, in experiment [4], the expression of c-myc result is “significantly inhibits”. Also, the expression of survivin result in experiment [5] was “significantly inhibits”. For the same compound, the expression of b-cat result in experiment [6] is “significantly inhibits”.
